Laboratory results taken from patent US10287267B2, “Isoquinolin-3-yl carboxamides and preparation and use thereof” (Samumed, LLC, priority 2016, dated 2019).
Like-named read-outs stand apart in the source and are kept apart here.

Tests used:
[1] = tested on: α-smooth muscle actin (αSMA) positive LL29 cells; assay: Inhibition of fibrotic process: αSMA in TGF-β1 treated primary human fibroblasts from IPF patients; assay type: cell-based; settings: for EC50: Table 8, LL29 fibroblasts from IPF patients, TGF-β1 20 ng/mL, 4 days; for inhibition at 10 µM: read-out: percent value in parentheses beside EC50 >10 μM;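 on all read-outs here: controls were TGF-β1 stimulated wells with DMSO vehicle (positive) and cells given DMSO alone (negative), cultured in F12 medium with 1% fetal bovine serum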
[2] = tested on: SW480 colon carcinoma cells; assay: Cell viability assay (CellTiter-Glo); assay type: cell-based, human; settings: for EC50: SW480 cells, CellTiter-Glo, four days incubation; for inhibition at 10 µM: SW480, read-out: percent inhibition at 10 μM
[3] = target: recombinant GSK3β kinase (Homo sapiens (Human), UniProt P49841); assay: GSK3β kinase assay (Ser/Thr 09 peptide Z-lyte FRET); assay type: biochemical; settings: 46 μM ATP, 1 h room temperature;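 further: kinase activity read as coumarin to fluorescein emission ratio, 11-point threefold dilutions from 10 µM to 0.0003 µM in duplicate, unphosphorylated and phosphorylated peptide as 0% and 100% controls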
recombinant GSK3β kinase, sequence (P49841 whole entry): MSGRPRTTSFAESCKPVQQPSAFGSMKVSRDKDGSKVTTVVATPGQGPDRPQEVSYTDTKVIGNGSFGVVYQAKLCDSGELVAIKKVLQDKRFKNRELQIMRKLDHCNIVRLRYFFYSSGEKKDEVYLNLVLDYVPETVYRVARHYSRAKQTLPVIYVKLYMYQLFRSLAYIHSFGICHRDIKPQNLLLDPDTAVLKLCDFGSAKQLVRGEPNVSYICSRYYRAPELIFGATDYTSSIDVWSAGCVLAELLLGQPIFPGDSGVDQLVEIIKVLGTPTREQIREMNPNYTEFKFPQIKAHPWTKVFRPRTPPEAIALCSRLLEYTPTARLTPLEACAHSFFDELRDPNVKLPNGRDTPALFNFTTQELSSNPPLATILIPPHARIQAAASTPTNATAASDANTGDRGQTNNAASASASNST

[4] = target: recombinant DYRK1A kinase (Homo sapiens (Human), UniProt Q13627); assay: DYRK1A kinase assay (Ser/Thr 18 peptide Z-lyte FRET); assay type: biochemical; settings: 30 μM ATP, 1 h room temperature;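 further: Read-out is the coumarin to fluorescein emission ratio, referenced to unphosphorylated (0%) and phosphorylated (100%) Ser/Thr 18 peptide controls, values from dose-response curves by non-linear regression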
[5] = tested on: Tau phosphorylation at Ser396 (pSer396); assay: Tau phosphorylation assay (pSer396 ELISA / western blot) in SH-SY5Y cells; assay type: cell-based, human; settings: SH-SY5Y cells, overnight (16-18 h) exposure, read-out: pSer396 Tau EC50;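 further: EC50 for reduction of Tau pSer396 in lysed cells, measured by colorimetric ELISA or chemiluminescent western blot, both using the same pSer396 antibody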
[6] = tested on: IL-6; assay: IL-6 inhibition in LPS-stimulated human peripheral blood mononuclear cells (HTRF); assay type: cell-based; settings: for EC50: Table 9, huPBMCs, LPS 50 ng/mL, 22 hours, dose-response starting from 10 μM; for inhibition at 10 µM: read-out: percent value in parentheses beside EC50 >10 μM;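 on all read-outs here: IL-6 detected by HTRF with an XL665- and Cryptate-labelled anti-IL-6 antibody pair, samples run in duplicate, EC50 obtained from a four-parameter Levenberg-Marquardt curve fit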
Experimental: After 22 hour incubation, a mixture of anti-IL6 XL665 and anti-IL-6 Cryptate diluted in reconstitution buffer (Catalog #62IL6PEC, Cisbio Inc., Bedford, Mass.) was added to each well. […] All samples were processed in duplicate. […] EC50 was determined using software generated by Dotmatics Limited (Windhill Bishops Stortford Herts, UK) using the Levenberg-Marquardt 4 parameter fitting procedure with finite different gradients.

[7] = tested on: Wnt pathway (Sp5-Luc reporter, TCF/LEF binding sites) in SW480 colon carcinoma cells; assay: Screening assay for Wnt activity: Sp5-Luc reporter gene assay; assay type: cell-based, human; settings: for EC50: Sp5-Luc reporter, SW480 cells, 36 to 48 hours; for inhibition at 10 µM: SW480, read-out: percent inhibition at 10 μM;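 on all read-outs here: firefly luciferase luminescence read in stably transduced SW480 cells carrying the Sp5 promoter reporter with eight TCF/LEF sites, compounds given in 0.1% DMSO final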
Experimental: The screening assay for Wnt activity is described as follows.
Following incubation, 15 μl of BriteLite Plus luminescence reagent (Perkin Elmer) was added to each well of the 384-well assay plates. The plates were placed on an orbital shaker for 2 min and then luminescence was quantified using the Envision (Perkin Elmer) plate reader.

[8] = Homo sapiens, Fibroblast, 96 h, dose-response 10 μM to 0.94 nM

| SMILES | EC50 [1, 8] | EC50 ([2]; Homo sapiens, 96 h) | EC50 [3] | EC50 [4] | EC50 ([5]; Homo sapiens) | EC50 ([6]; Homo sapiens, PBMC) | EC50 ([7]; Homo sapiens) | inhibition at 10 µM ([2]; Homo sapiens) | inhibition at 10 µM ([6]; Homo sapiens, PBMC) | inhibition at 10 µM ([7]; Homo sapiens) | inhibition at 10 µM ([1]; Homo sapiens, Fibroblast) | EC50 ([1]; dose-response 10 μM to […]) | EC50 [2] | EC50 [5] | EC50 [6] | EC50 [7] |
| --- | --- | --- | --- | --- | --- | --- | --- | --- | --- | --- | --- | --- | --- | --- | --- | --- |
| Cn1ncc(-c2ccc3cnc(NC(=O)C4CCC(F)(F)CC4)cc3c2)c1CN1CCCCC1 [Compound 300, 4,4-Difluoro-N-(6-(1-methyl-5-(piperidin-1-ylmethyl)-1H-pyrazol-4-yl)isoquinolin-3-yl)cyclohexane-1-carboxamide] | 511 nM | 1300 nM | 31 nM | 8.2 nM | 222 nM | 2740 nM | 1120 nM | – | – | – | – | – | – | – | – | – |
| Cn1cc(-c2ccc3cnc(NC(=O)C4CC5(CCN(CCF)CC5)C4)cc3c2)cn1 [Compound 301, 7-(2-Fluoroethyl)-N-(6-(1-methyl-1H-pyrazol-4-yl)isoquinolin-3-yl)-7-azaspiro[3.5]nonane-2-carboxamide] | 4810 nM | 550 nM | 10 nM | 2 nM | 108 nM | 393 nM | 467 nM | – | – | – | – | – | – | – | – | – |
| CN(CC(=O)Nc1cc2cc(-c3cnn(C)c3)ccc2cn1)C1CCC1 [Compound 302, 2-(Cyclobutyl(methyl)amino)-N-(6-(1-methyl-1H-pyrazol-4-yl)isoquinolin-3-yl)acetamide] | 901 nM | > 10000 nM | 38 nM | 7.7 nM | 628 nM | 7700 nM | 3650 nM | 34.9% | – | – | – | – | – | – | – | – |
| CCN(CC)CC(=O)Nc1cc2cc(-c3cnn(C)c3)ccc2cn1 [Compound 303, 2-(Diethylamino)-N-(6-(1-methyl-1H-pyrazol-4-yl)isoquinolin-3-yl) acetamide] | 817 nM | 7800 nM | 89 nM | 8 nM | 783 nM | 5240 nM | 9830 nM | – | – | – | – | – | – | – | – | – |
| [2H]C([2H])([2H])n1cc(-c2ccc3cnc(NC(=O)C4CCN(CCC(F)(F)F)CC4)cc3c2)cn1 [Compound 304, N-(6-(1-(Methyl-d3)-1H-pyrazol-4-yl)isoquinolin-3-yl)-1-(3,3,3-trifluoropropyl)piperidine-4-carboxamide] | 150 nM | 1340 nM | 29 nM | 2.7 nM | 210 nM | 1140 nM | 2320 nM | – | – | – | – | – | – | – | – | – |
| [2H]C([2H])([2H])n1cc(-c2ccc3cnc(NC(=O)CN4CCCC4)cc3c2)cn1 [Compound 305, N-(6-(1-(Methyl-d3)-1H-pyrazol-4-yl)isoquinolin-3-yl)-2-(pyrrolidin-1-yl) acetamide] | 5510 nM | 1650 nM | 51 nM | 8.2 nM | 247 nM | 1140 nM | 1940 nM | – | – | – | – | – | – | – | – | – |
| [2H]C([2H])([2H])n1cc(-c2ccc3cnc(NC(=O)CN4CCCCC4)cc3c2)cn1 [Compound 306, N-(6-(1-(Methyl-d3)-1H-pyrazol-4-yl)isoquinolin-3-yl)-2-(piperidin-1-yl) acetamide] | 282 nM | 3200 nM | 66 nM | 7.2 nM | 592 nM | 2520 nM | 3700 nM | – | – | – | – | – | – | – | – | – |
| Cc1cc(-c2ccc3cnc(NC(=O)C4CCN(CCC(F)(F)F)CC4)cc3c2)on1 [Compound 307, N-(6-(3-Methylisoxazol-5-yl)isoquinolin-3-yl)-1-(3,3,3-trifluoropropyl) piperidine-4-carboxamide] | 7150 nM | > 10000 nM | 5260 nM | 6220 nM | 2080 nM | > 10000 nM | > 10000 nM | – | 4.3% | 25.9% | – | – | – | – | – | – |
| O=C(Nc1cc2cc(-c3cnco3)ccc2cn1)C1CCN(CCC(F)(F)F)CC1 [Compound 308, N-(6-(Oxazol-5-yl)isoquinolin-3-yl)-1-(3,3,3-trifluoropropyl)piperidine-4-carboxamide] | > 10000 nM | > 10000 nM | 107 nM | 2.4 nM | 361 nM | 9230 nM | 1810 nM | 32% | – | – | 27.6% | – | – | – | – | – |
| Cc1nnc(-c2ccc3cnc(NC(=O)C4(F)CCN(CC(C)C)CC4)cc3c2)o1 [Compound 309, 4-Fluoro-1-isobutyl-N-(6-(5-methyl-1,3,4-oxadiazol-2-yl)isoquinolin-3-yl) piperidine-4-carboxamide] | 14 nM | > 10000 nM | 120 nM | 34.3 nM | 1220 nM | > 10000 nM | > 10000 nM | 9.6% | 4.5% | 43.5% | – | – | – | – | – | – |
| Cn1cc(-c2ccc3cnc(NC(=O)C4CCN(CC5(C(F)(F)F)CC5)CC4)cc3c2)cn1 [Compound 310, N-(6-(1-Methyl-1H-pyrazol-4-yl)isoquinolin-3-yl)-1-((1-(trifluoromethyl)cyclopropyl)methyl)piperidine-4-carboxamide] | 294 nM | 5350 nM | 105 nM | 6.2 nM | 628 nM | 1170 nM | 1460 nM | – | – | – | – | – | – | – | – | – |
| C[C@H](F)CN1CCC(C(=O)Nc2cc3cc(-c4cnn(C)c4)ccc3cn2)CC1 [Compound 311, (S)-1-(2-Fluoropropyl)-N-(6-(1-methyl-1H-pyrazol-4-yl)isoquinolin-3-yl) piperidine-4-carboxamide] | – | – | 20 nM | 1.9 nM | – | – | – | – | – | – | – | 76 nM | 751 nM | 163 nM | 396 nM | 578 nM |
| Cn1cc(-c2ccc3cnc(NC(=O)C(C)(C)F)cc3c2)nn1 [Compound 312, 2-Fluoro-2-methyl-N-(6-(1-methyl-1H-1,2,3-triazol-4-yl)isoquinolin-3-yl) propanamide] | > 10000 nM | > 10000 nM | 31 nM | 12.7 nM | 762 nM | > 10000 nM | > 10000 nM | – | 3.9% | 23.8% | 36.5% | – | – | – | – | – |
| C[C@@H](F)CN1CCC(C(=O)Nc2cc3cc(-c4cnn(C)c4)ccc3cn2)CC1 [Compound 313, (R)-1-(2-Fluoropropyl)-N-(6-(1-methyl-1H-pyrazol-4-yl)isoquinolin-3-yl) piperidine-4-carboxamide] | 105 nM | 711 nM | 39 nM | 2.5 nM | 330 nM | 1010 nM | 577 nM | – | – | – | – | – | – | – | – | – |
| CC(C(=O)Nc1cc2cc(-c3cnn(C)c3)ccc2cn1)N1CCCCC1 (stereo not shown) [Compound 314, N-(6-(1-Methyl-1H-pyrazol-4-yl)isoquinolin-3-yl)-2-(piperidin-1-yl) propanamide] | 45 nM | 1200 nM | 12 nM | 22.1 nM | 128 nM | 1270 nM | 859 nM | – | – | – | – | – | – | – | – | – |
| [2H]C1([2H])CCC([2H])([2H])N1CC(=O)Nc1cc2cc(-c3cnn(C)c3)ccc2cn1 [Compound 315, N-(6-(1-Methyl-1H-pyrazol-4-yl)isoquinolin-3-yl)-2-(pyrrolidin-1-yl-2,2,5,5-d4)acetamide] | 1820 nM | 1250 nM | 44 nM | 12.3 nM | 346 nM | 819 nM | 1590 nM | – | – | – | – | – | – | – | – | – |
| CN1CCN(C(=O)Nc2cc3cc(-c4cnn(C)c4)ccc3cn2)CC1 [Compound 316, 4-Methyl-N-(6-(1-methyl-1H-pyrazol-4-yl)isoquinolin-3-yl)piperazine-1-carboxamide] | 1080 nM | 2340 nM | 509 nM | 4.2 nM | 8780 nM | 395 nM | 2840 nM | – | – | – | – | – | – | – | – | – |
| C[C@@H](C(=O)Nc1cc2cc(-c3cnn(C)c3)ccc2cn1)N1CCCC1 [Compound 317, (S)—N-(6-(1-Methyl-1H-pyrazol-4-yl)isoquinolin-3-yl)-2-(pyrrolidin-1-yl) propanamide] | 174 nM | 6340 nM | 30 nM | 37 nM | 200 nM | 1900 nM | 1270 nM | – | – | – | – | – | – | – | – | – |
| C[C@H](C(=O)Nc1cc2cc(-c3cnn(C)c3)ccc2cn1)N1CCCC1 [Compound 318, (R)—N-(6-(1-Methyl-1H-pyrazol-4-yl)isoquinolin-3-yl)-2-(pyrrolidin-1-yl) propanamide] | 73 nM | 940 nM | 12 nM | 58.8 nM | 72 nM | 1030 nM | 442 nM | – | – | – | – | – | – | – | – | – |
| Cn1cc(-c2ccc3cnc(NC(=O)[C@H]4CCCN4)cc3c2)cn1 [Compound 320, (R)—N-(6-(1-Methyl-1H-pyrazol-4-yl)isoquinolin-3-yl)pyrrolidine-2-carboxamide] | 69 nM | 1780 nM | 10 nM | 9.9 nM | 280 nM | 1260 nM | 1140 nM | – | – | – | – | – | – | – | – | – |
